The source of these data is patent publication US12319659B2, “Selective ligand for dopamine D3 receptor, preparation method therefor, and pharmaceutical application thereof” (Shenzhen Linglan Bio-Pharmaceutical Technology Co., Ltd, priority 2017, dated 2025).

Structures can show the parent of a compound that is named as a salt.

T2 sequence (P14416 whole entry): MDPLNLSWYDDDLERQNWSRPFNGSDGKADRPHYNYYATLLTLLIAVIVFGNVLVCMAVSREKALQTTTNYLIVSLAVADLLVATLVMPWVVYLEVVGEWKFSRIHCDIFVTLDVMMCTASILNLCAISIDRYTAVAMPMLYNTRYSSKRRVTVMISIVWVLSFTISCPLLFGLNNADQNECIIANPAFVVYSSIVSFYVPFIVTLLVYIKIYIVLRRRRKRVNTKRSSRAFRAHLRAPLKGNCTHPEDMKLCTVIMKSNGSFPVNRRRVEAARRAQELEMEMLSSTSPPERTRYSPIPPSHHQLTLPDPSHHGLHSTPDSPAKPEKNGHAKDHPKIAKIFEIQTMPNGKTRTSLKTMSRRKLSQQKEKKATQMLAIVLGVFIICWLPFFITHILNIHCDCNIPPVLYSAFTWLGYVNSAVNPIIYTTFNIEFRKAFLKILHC
T1 sequence (P35462 whole entry): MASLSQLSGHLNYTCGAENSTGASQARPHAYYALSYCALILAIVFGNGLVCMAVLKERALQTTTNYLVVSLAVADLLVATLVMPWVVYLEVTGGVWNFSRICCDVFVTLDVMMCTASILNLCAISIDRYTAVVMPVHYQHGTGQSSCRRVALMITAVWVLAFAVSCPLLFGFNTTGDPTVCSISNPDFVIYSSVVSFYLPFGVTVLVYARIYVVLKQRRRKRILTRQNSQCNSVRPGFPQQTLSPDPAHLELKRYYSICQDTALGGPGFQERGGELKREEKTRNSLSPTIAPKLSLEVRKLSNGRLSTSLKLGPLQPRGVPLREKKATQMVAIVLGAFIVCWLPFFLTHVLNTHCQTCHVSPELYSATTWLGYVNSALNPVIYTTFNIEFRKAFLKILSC

One test addresses T1, dopamine D3 receptor (Homo sapiens, UniProt P35462). In words: cell-based.
Details: not given
For `O=C(NCCCCN1CCN(c2cccc(Cl)c2Cl)CC1)c1cc2ccccc2[nH]1` [Compound 31j, N-(4-(4-(2,3-dichlorophenyl)piperazin-1-yl)butyl)-1H-indole-2-carboxamide, reference compound], the Ki amounted to 6.21 µM.

The next test concerns the target T1, dopamine D3 receptor.
Experiment: not given
Details: not given
`O=C(NCCCCN1CCN(c2cccc(Cl)c2Cl)CC1)c1cc2ccccc2[nH]1` [31j•HCl, N-(4-(4-(2,3-dichlorophenyl)piperazin-1-yl)butyl)-1H-indole-2-carboxamide, reference compound]: the Ki turned out to be 15.6 nM.
As to `O=C1c2ccccc2C(=O)N1CCCCN1CCN(c2cccc(F)c2F)CC1` [Compound 3d, 2-(4-(4-(2,3-fluorophenyl)piperazin-1-yl)butyl)isoindoline-1,3-dione], the Ki came out at 19.3 nM.

A further test concerns the target T2, dopamine D2 receptor (Homo sapiens, UniProt P14416).
T2 construct: expressed in transfected cells; host or cells: Human embryonic kidney-293 cells
In words: Competitive inhibition test using radioligands ([3H]-sulpiride), D2 receptor. The test is classed as binding. The settings on record: [3H]-sulpiride competition, HEK-293 cells; read-out: KiD2R.
Method: Human embryonic kidney-293 cells were cultured in fresh MEM medium containing 10% fetal bovine serum, 100 units of penicillin, and 100 μg/mL streptomycin at 37° C. under 5% CO2. Cells were transfected with DNA plasmids of dopamine D2 and D3 receptors respectively by using polyethylenimine. After transfection for 4 hours, medium was replaced with fresh MEM medium containing fetal bovine serum and the cells were further cultured for 24 hours. The cells were seeded into 24-well plates and cultured for 14-16 hours or overnight. After the medium was discarded, the cells were rinsed with pre-cooled serum-free MEM. Radioligand ([^3H]-sulpiride) and various concentrations of compounds were added into the adherent cells, and incubated in a bath at 4° C. for 150 minutes. The cells were rinsed three times with pre-cooled MEM containing 10 mM HEPES to remove unbound ligands. After the medium was completely removed, the cells were lysed with 1% sodium lauryl sulfate. The remaining radioligands were detected with a liquid scintillation counter to calculate the relative amount of bound compounds.
For the molecule `O=C(NCCCCN1CCN(c2ccc(Cl)cc2Cl)CC1)c1cc2ccccc2[nH]1` [31k•HCl, N-(4-(4-(2,4-dichlorophenyl)piperazin-1-yl)butyl)-1H-indole-2-carboxamide, reference compound], the Ki was above 23900 nM.
Regarding `O=C1c2ccccc2C(=O)N1CCCCN1CCN(c2cccc(F)c2F)CC1` [Compound 3d, 2-(4-(4-(2,3-fluorophenyl)piperazin-1-yl)butyl)isoindoline-1,3-dione], the Ki is 2160 nM.

Staying with this test, now noted: […], arylpiperazine-arylurea compounds at 100 nM, [3H]-sulpiride, HEK-293 cells (Table 2); read-out: D2 Receptor Displacement (%).
As for `O=C(NCCCCN1CCN(c2ccc(Cl)cc2)CC1)Nc1ccc2ccccc2n1` [7i•HCl, 1-(4-(4-(4-chlorophenyl)piperazin-1-yl)butyl)-3-(quinolin-2-yl)urea], the inhibition worked out at 13.4 ± 8.5%.
On the same count and under the same terms, the same measure for `O=C(NCCCCN1CCN(c2cccc(Cl)c2Cl)CC1)Nc1cnc2ccccc2c1` [8j•HCl, 1-(4-(4-(2,3-dichlorophenyl)piperazin-1-yl)butyl)-3-(quinolin-3-yl)urea]: 4.8 ± 4.3%; for `O=C(NCCCCN1CCN(c2ccc(Cl)cc2)CC1)Nc1cc2ccccc2cn1` [Compound 11i, 1-(4-(4-(4-chlorophenyl)piperazin-1-yl)butyl)-3-(isoquinolin-3-yl)urea]: -14.7 ± 1.8%; for `O=C(NCCCCN1CCN(c2ccc(Cl)cc2)CC1)Nc1nc2ccccc2s1` [Compound 21i, 1-(benzothiazol-2-yl)-3-(4-(4-(4-chlorophenyl)piperazin-1-yl)butyl)urea]: 36.8 ± 6.5%.
On to `O=C(NCCCCN1CCN(c2cccc(Cl)c2Cl)CC1)Nc1nc2ccccc2s1` [Compound 21j, 1-(benzothiazol-2-yl)-3-(4-(4-(2,3-dichlorophenyl)piperazin-1-yl)butyl)urea], for which the inhibition amounted to 35.5 ± 3.4%.

Staying with this test, now noted: […], arylpiperazine-phthalimide compounds at 100 nM, [3H]-sulpiride, HEK-293 cells (Table 1); read-out: D2 Receptor Displacement (%).
On to `O=C1c2ccccc2C(=O)N1CCCCN1CCN(c2ccc(Cl)cc2Cl)CC1` [3k•HCl, 2-(4-(4-(2,4-dichlorophenyl)piperazin-1-yl)butyl)isoindoline-1,3-dione], for which the inhibition came out at 30.2 ± 3.4%.
With `O=C1c2ccccc2C(=O)N1CCCCN1CCN(c2ccccc2F)CC1` [Compound 3a, 2-(4-(4-(2-fluorophenyl)piperazin-1-yl)butyl)isoindoline-1,3-dione], the inhibition is 31.8 ± 3.3%.
On the same count and under the same terms, the same measure for `O=C1c2ccccc2C(=O)N1CCCCN1CCN(c2ccc(F)cc2)CC1` [Compound 3c, 2-(4-(4-(4-fluorophenyl)piperazin-1-yl)butyl)isoindoline-1,3-dione]: -6.3 ± 4%.
In the case of `O=C1c2ccccc2C(=O)N1CCCCN1CCN(c2ccccc2Cl)CC1` [Compound 3g, 2-(4-(4-(2-chlorophenyl)piperazin-1-yl)butyl)isoindoline-1,3-dione], the inhibition was 28.7 ± 3.3%.
On the same count and under the same terms, the same measure for `O=C1c2ccccc2C(=O)N1CCCCN1CCN(c2cccc(Cl)c2)CC1` [Compound 3h, 2-(4-(4-(3-chlorophenyl)piperazin-1-yl)butyl)isoindoline-1,3-dione]: 64.8 ± 3.5%.
Consider `O=C1c2ccccc2C(=O)N1CCCCN1CCN(c2cccc(Cl)c2Cl)CC1` [Compound 3j, 2-(4-(4-(2,3-dichlorophenyl)piperazin-1-yl)butyl)isoindoline-1,3-dione], for which the inhibition turned out to be 70.3 ± 2.7%.
With `O=C1c2ccccc2C(=O)N1CCCCN1CCN(c2ccc(Cl)cc2F)CC1` [Compound 3m, 2-(4-(4-(4-chloro-2-fluorophenyl)piperazin-1-yl)butyl)isoindoline-1,3-dione], the inhibition was 2.8 ± 12%.
Still for that read-out and setting: the same measure for `O=C1c2ccccc2C(=O)N1CCCCN1CCN(c2cc(C(F)(F)F)ccc2F)CC1` [Compound 3n, 2-(4-(4-(2-fluoro-5-(trifluoromethyl)phenyl)piperazin-1-yl)butyl)isoindoline-1,3-dione]: -4.7 ± 7.8%; for `O=C1c2ccccc2C(=O)N1CCCCN1CCN(c2cccc(C(F)(F)F)c2)CC1` [Compound 3p, 2-(4-(4-(3-(trifluoromethyl)phenyl)piperazin-1-yl)butyl)isoindoline-1,3-dione]: 44 ± 1.6%; for `CCN1CCCC1CNC(=O)c1cc(S(N)(=O)=O)ccc1OC` (stereo not shown) [sulpiride, reference compound]: 92.2 ± 0.1%.

Still in this test, the particulars now being: arylpiperazine-arylurea compounds at 100 nM, [3H]-sulpiride, HEK-293 cells (Table 2).
With `O=C(NCCCCN1CCN(c2cc(C(F)(F)F)ccc2F)CC1)Nc1cnc2ccccc2c1` [8n•HCl, 1-(4-(4-(2-fluoro-5-(trifluoromethyl)phenyl)piperazin-1-yl)butyl)-3-(quinolin-3-yl)urea], the “D2 Receptor Displacement (%)” value is 10.7 ± 4.0%.
`O=C(NCCCCN1CCN(c2cccc(C(F)(F)F)c2)CC1)Nc1cnc2ccccc2c1` [8p•HCl, 1-(4-(4-(3-(trifluoromethyl)phenyl)piperazin-1-yl)butyl)-3-(quinolin-3-yl)urea]: the “D2 Receptor Displacement (%)” value worked out at 84.1 ± 1.8%.
For `O=C(NCCCCN1CCN(c2ccc(Cl)cc2)CC1)Nc1nc2ccccc2s1` [21i•HCl, 1-(benzothiazol-2-yl)-3-(4-(4-(4-chlorophenyl)piperazin-1-yl)butyl)urea], the “D2 Receptor Displacement (%)” value is reported as 33.4 ± 5.9%.
For `O=C(NCCCCN1CCN(c2cccc(Cl)c2Cl)CC1)Nc1nc2ccccc2s1` [21j•HCl, 1-(benzothiazol-2-yl)-3-(4-(4-(2,3-dichlorophenyl)piperazin-1-yl)butyl)urea], the “D2 Receptor Displacement (%)” value is given as 52.1 ± 2.0%.
On to `O=C(NCCCCN1CCN(c2ccc(Cl)cc2Cl)CC1)Nc1nc2ccccc2s1` [21k•HCl, 1-(benzothiazol-2-yl)-3-(4-(4-(2,4-dichlorophenyl)piperazin-1-yl)butyl)urea], for which the “D2 Receptor Displacement (%)” value was 19.0 ± 1.4%.
In the case of `O=C(NCCCCN1CCN(c2cc(C(F)(F)F)ccc2F)CC1)Nc1cnc2ccccc2c1` [Compound 8n, 1-(4-(4-(2-fluoro-5-(trifluoromethyl)phenyl)piperazin-1-yl)butyl)-3-(quinolin-3-yl)urea], the “D2 Receptor Displacement (%)” value stood at 24.9 ± 1.8%.
Still for that read-out and setting: the same measure for `O=C(NCCCCN1CCN(c2cccc(C(F)(F)F)c2)CC1)Nc1cnc2ccccc2c1` [Compound 8p, 1-(4-(4-(3-(trifluoromethyl)phenyl)piperazin-1-yl)butyl)-3-(quinolin-3-yl)urea]: −6.7 ± 4.2%; for `O=C(NCCCCN1CCN(c2ccc(Cl)cc2Cl)CC1)Nc1nc2ccccc2s1` [Compound 21k, 1-(benzothiazol-2-yl)-3-(4-(4-(2,4-dichlorophenyl)piperazin-1-yl)butyl)urea]: 40.8 ± 5.6%.

Staying with this test, now noted: arylpiperazine-phthalimide compounds at 100 nM, [3H]-sulpiride, HEK-293 cells (Table 1).
For the molecule `O=C1c2ccccc2C(=O)N1CCCCN1CCN(c2ccc(Cl)cc2)CC1` [3i•HCl, 2-(4-(4-(4-chlorophenyl)piperazin-1-yl)butyl)isoindoline-1,3-dione], the “D2 Receptor Displacement (%)” value is listed as 16.3 ± 4.2%.
Still for that read-out and setting: the same measure for `O=C1c2ccccc2C(=O)N1CCCCN1CCN(c2cccc(C(F)(F)F)c2)CC1` [3p•HCl, 2-(4-(4-(3-(trifluoromethyl)phenyl)piperazin-1-yl)butyl)isoindoline-1,3-dione]: 37.9 ± 2.8%; for `O=C1c2ccccc2C(=O)N1CCCCN1CCN(c2cccc(F)c2F)CC1` [Compound 3d, 2-(4-(4-(2,3-fluorophenyl)piperazin-1-yl)butyl)isoindoline-1,3-dione]: 17.7 ± 3.7%; for `O=C1c2ccccc2C(=O)N1CCCCN1CCN(c2ccc(F)cc2F)CC1` [Compound 3e, 2-(4-(4-(2,4-fluorophenyl)piperazin-1-yl)butyl)isoindoline-1,3-dione]: 4.8 ± 6.5%.
Consider `O=C1c2ccccc2C(=O)N1CCCCN1CCN(c2c(F)cccc2F)CC1` [Compound 3f, 2-(4-(4-(2,6-fluorophenyl)piperazin-1-yl)butyl)isoindoline-1,3-dione], for which the “D2 Receptor Displacement (%)” value is recorded as 10.3 ± 6.1%.
On to `O=C1c2ccccc2C(=O)N1CCCCN1CCN(c2ccc(Cl)cc2)CC1` [Compound 3i, 2-(4-(4-(4-chlorophenyl)piperazin-1-yl)butyl)isoindoline-1,3-dione], for which the “D2 Receptor Displacement (%)” value stood at 59.2 ± 18.3%.
